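48-hour exposure; five concentrations; linearly interpolated endpoints. TGI denotes the concentration required for complete inhibition of growth.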
Assays:
Experiment in all cases: growth of human tumour cells (NCI), 48 h
ACHN renal = tested on: ACHN renal
EKVX NSCLC = tested on: EKVX NSCLC
HL-60(TB) leukemia = tested on: HL-60(TB) leukemia
LOX IMVI melanoma = tested on: LOX IMVI melanoma
M14 melanoma = tested on: M14 melanoma
NCI-H522 lung = tested on: NCI-H522 lung
OVCAR-3 ovarian = tested on: OVCAR-3 ovarian
OVCAR-5 ovarian = tested on: OVCAR-5 ovarian
SK-MEL-28 melanoma = tested on: SK-MEL-28 melanoma
UACC-62 melanoma = tested on: UACC-62 melanoma

Measured: TGI

CCOC(=O)c1cc2cc([N+](=O)[O-])ccc2oc1=O
> 100 µM: all assays above
